Laboratory results reported in patent US12655141B2, “Inhibitors of notch signaling pathway and use thereof in treatment of cancers” (Cellestia Biotech AG, priority 2019, dated 2026).

Key:
cMYC = experiment: Western blot of RPMI8402 protein lysates: cMYC; type: cell-based, human; conditions: NOTCH positive leukemic cells, 1 μM, 24 hours, FIGS. 2 and 3
Procedure: (§1) One million human NOTCH positive T-ALL cell line RPMI8402 were treated with NOTCH targeting compounds at 1 μM concentration for 24 hours. Following treatment cells were harvested and washed with 1×PBS. Total RNA and total protein lysates were extracted as described below.
(§2) Cells were lysed in RIPA buffer (50 mM Tris·Cl, pH 7.5, 150 mM NaCl, 1% nonidet P-40, 0.5% sodium deoxycholate and 0.1% SDS) for 30 minutes at 4° C. Lysed cells were centrifuged to remove the debris at 14000 rpm at 4° C. Supernatant was transferred to a new eppendorf tube. The protein concentration was determined by Bradford assay using spectrophotometer (Ultrospec 3000 pro).
(§3) Initially for western blotting, 40 μg of protein were denatured in 1×SDS gel loading buffer (100 mM Tris·Cl, pH 6.8, 200 mM DTT, 4% SDS, 0.2% bromophenol, 20% glycerol) by heating at 99° C. for 5 minutes. Denatured protein samples were stored on ice until loading on to the acrylamide gel. The samples were run on 8% or 10% acrylamide gel in Tris-glycine electrophoresis buffer (25 mM Tris, 250 mM glycine, 0.1% SDS). Following separation on the acrylamide gel, protein samples were transferred on to PVDF membrane (PEQ lab, catalog number 39-3010) using transfer buffer (39 mM glycine, 48 mM Tris base, 0.037% SDS and 20% methanol).
(§4) For immunoblotting, membranes were blocked with 5% milk and incubated overnight with primary antibodies at 4° C. Membrane were washed with 1×TBST (1×TBS+0.5 tween 20) for 5 minutes (3 times) and incubated with HRP-conjugated secondary antibodies for one hour at room temperature. Signal was detected with Super Signal West chemiluminescent substrate (Thermo Scientific, catalog number 34077).
(§5) Total protein lysates were analysed by western blot analysis using N1-ICD (cleaved and active NOTCH1 Intracellular Domain), cMYC and ACTIN specific antibodies.

[1] = system: N1-ICD (cleaved and active NOTCH1 Intracellular Domain); experiment: Western blot of RPMI8402 protein lysates: N1-ICD; type: cell-based, human; conditions: NOTCH positive leukemic cells, 1 μM, 24 hours, FIGS. 2 and 3
Procedure: as §1, §2, §3, §4, §5

NOTCH pathway = experiment: Western blot, downregulation of NOTCH pathway (N1-ICD and cMYC), FIG. 2 and 3; type: cell-based, human; conditions: RPMI8402, 1 μM, 24 hours
Procedure: NOTCH positive human leukemic RPMI8402 cells were treated with 1 μM of 6-(4-tert-butylphenoxy)pyridin-3-amine and 6-([1,1′-Biphenyl]-4-yloxy)-N-methylpyridin-3-amine for 24 hours. Following treatment, total protein lysates were extracted and protein expression analysed by western blot.
NOTCH positive human leukemic RPMI8402 cells were treated with 1 μM of 6-(4-tert-butylphenoxy)pyridin-3-amine and 6-((4′-Fluoro-[1,1′-biphenyl]-4-yl)oxy)pyridin-3-amine, 6-([1,1′-Biphenyl]-4-yloxy)-4-methylpyridin-3-amine, 6-([1,1′-Biphenyl]-4-yloxy)-2-methylpyridin-3-amine and N-Methyl-6-((6-phenylpyridin-3-yl)oxy)pyridin-3-amine for 24 hours. Following treatment, total protein lysates were extracted and protein expression analysed by western blot.
as §1, §2, §3, §4

[2] = system: NOTCH positive/driven human T cell acute lymphoblastic leukemia cell line RPMI 8402; experiment: Alamar blue anti-proliferative assay; type: cell-based; conditions: Homo sapiens, RPMI 8402, RPMI8402, 72 hours, concentration range 0.01-10 μM
Procedure: Alamarblue® and PrestoBlue proliferation assays were performed to determine the growth kinetics of Notch inhibitor treated cells. Alamar Blue® and PrestoBlue consists of a cell permeable substrate resazurin. In metabolically active and proliferating cells, resazurin is converted to resorufin due to an intrinsic reducing power of live cells and produces a red fluorescence. Therefore production of resorufin serves as an indicator of the viability of the cell population.
Proliferation assays were performed by seeding 5000 cells/well in a 96 well plate. Cells were treated with DMSO or compounds for 72 hours using concentration ranges of 0.01-10 μM. Each concentration was tested in 4 replicates. To determine the growth kinetics, 10 μl of Alamar Blue® or PrestoBlue (Invitrogen) was added to each well and incubated for 4 hours. Readout was taken using Tecan F500 (Tecan) multiplate reader or Varioskan LUX (ThermoFisher) multiplate reader.
In order to determine anti-cancer potency of compounds compared to 6-(4-tert-butylphenoxy)pyridin-3-amine (described in WO2013/093885), NOTCH positive/driven human T cell acute lymphoblastic leukemia cell line RPMI 8402 was treated with selected compounds.

Row | Structure (SMILES) | IC50 [2] | downregulation of cMYC compared to 6-(4-tert-butylphenoxy)pyridin-3-amine (cMYC) | downregulation of N1-ICD compared to 6-(4-tert-butylphenoxy)pyridin-3-amine [1] | potency in downregulating NOTCH pathway compared with 6-(4-tert-butylphenoxy)pyridin-3-amine (NOTCH pathway)
1 | CNc1ccc(Oc2ccc(-c3ccccc3)cc2)nc1 [Example 2, 6-([1,1′-Biphenyl]-4-yloxy)-N-methylpyridin-3-amine] | 110 nM | stronger downregulation | stronger downregulation | enhanced potency
2 | Cc1nc(Oc2ccc(-c3ccccc3)cc2)ccc1N [Example 8, 6-([1,1′-Biphenyl]-4-yloxy)-2-methylpyridin-3-amine] | 110 nM | stronger downregulation | stronger downregulation | enhanced potency

Continued, in another order:

Row | IC50 [2] | Structure (SMILES) | downregulation of cMYC compared to 6-(4-tert-butylphenoxy)pyridin-3-amine (cMYC) | downregulation of N1-ICD compared to 6-(4-tert-butylphenoxy)pyridin-3-amine [1] | potency in downregulating NOTCH pathway compared with 6-(4-tert-butylphenoxy)pyridin-3-amine (NOTCH pathway)
3 | 110 nM | Cc1cc(Oc2ccc(-c3ccccc3)cc2)ncc1N [Example 9, 6-([1,1′-Biphenyl]-4-yloxy)-4-methylpyridin-3-amine] | stronger downregulation | stronger downregulation | enhanced potency
4 | 83 nM | Nc1ccc(Oc2ccc(-c3ccc(F)cc3)cc2)nc1 [Example 10, 6-((4′-Fluoro-[1,1′-biphenyl]-4-yl)oxy)pyridin-3-amine] | stronger downregulation | stronger downregulation | enhanced potency
5 | 500 nM | CNc1ccc(Oc2ccc(-c3ccccc3)nc2)nc1 [Example 23, N-Methyl-6-((6-phenylpyridin-3-yl)oxy)pyridin-3-amine] | stronger downregulation | stronger downregulation | enhanced potency
